Data published in patent US6211244A, “Calcium receptor-active compounds” (priority 1995, dated 2001).
Read-outs that look alike come from different tables or passages of the source.

Target: T1, human calcium receptor (Homo sapiens, UniProt P41180, R990G)
T1 construct: expressed in transfected cells; host or cells: HEK 293
T1 sequence (P41180 20-1078 R990G): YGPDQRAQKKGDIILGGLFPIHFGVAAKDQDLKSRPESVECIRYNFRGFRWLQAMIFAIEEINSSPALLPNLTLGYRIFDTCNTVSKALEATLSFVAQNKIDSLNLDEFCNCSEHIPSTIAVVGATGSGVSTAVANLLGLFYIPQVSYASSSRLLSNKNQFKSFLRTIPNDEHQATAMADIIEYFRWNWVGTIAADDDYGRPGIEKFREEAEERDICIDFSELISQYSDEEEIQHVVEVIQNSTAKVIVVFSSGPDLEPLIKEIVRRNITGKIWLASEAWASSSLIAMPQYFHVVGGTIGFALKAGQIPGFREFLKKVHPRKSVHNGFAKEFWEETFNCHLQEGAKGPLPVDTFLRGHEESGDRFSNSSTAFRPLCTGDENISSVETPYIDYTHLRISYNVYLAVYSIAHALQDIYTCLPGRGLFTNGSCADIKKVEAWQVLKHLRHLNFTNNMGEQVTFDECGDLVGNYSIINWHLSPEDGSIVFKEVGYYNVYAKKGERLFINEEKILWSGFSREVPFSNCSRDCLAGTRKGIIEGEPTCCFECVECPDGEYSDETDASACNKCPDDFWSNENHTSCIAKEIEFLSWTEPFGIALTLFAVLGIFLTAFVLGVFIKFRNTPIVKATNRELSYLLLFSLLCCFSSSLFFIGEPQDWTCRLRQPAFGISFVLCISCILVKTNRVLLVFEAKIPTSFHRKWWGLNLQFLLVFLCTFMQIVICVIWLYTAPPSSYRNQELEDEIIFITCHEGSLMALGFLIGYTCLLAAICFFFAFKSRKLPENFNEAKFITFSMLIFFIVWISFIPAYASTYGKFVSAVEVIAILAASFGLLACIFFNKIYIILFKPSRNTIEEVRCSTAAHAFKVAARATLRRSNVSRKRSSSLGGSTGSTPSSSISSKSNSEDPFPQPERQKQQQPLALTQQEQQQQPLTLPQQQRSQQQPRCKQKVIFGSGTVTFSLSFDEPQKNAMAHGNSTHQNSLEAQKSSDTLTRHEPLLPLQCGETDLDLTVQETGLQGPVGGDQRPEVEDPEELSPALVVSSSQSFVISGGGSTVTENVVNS
Assay: increases in [Ca^2+ ]i in HEK-293 cells expressing the human calcium receptor (fura-2 loaded HEK 293/pHuPCaR4.0 cells), % activity
Type: cell-based
Details: for activity at […]: HEK293

COc1cccc(C(C)NCc2ccc3ccccc3c2)c1 (stereo not drawn) [Compound 10P]
% activity (33 ng/mL): 74% | % activity (330 ng/mL): 102%

CC(NC(C)c1cccc2ccccc12)c1ccc2c(c1)-c1ccccc1-2 (stereo not drawn) [Compound 10Q]
% activity (33 ng/mL): 84% | % activity (330 ng/mL): 100% | % activity (3300 ng/mL): 103%

CC(NC(C)c1cccc2ccccc12)c1ccc2c(c1)-c1ccccc1-2 (stereo not drawn) [Compound 10R]
% activity (33 ng/mL): 42% | % activity (330 ng/mL): 82%

CC(NC1CC1c1ccccc1)c1cccc2ccccc12 (stereo not drawn) [Compound 10V]
% activity (33 ng/mL): 62% | % activity (330 ng/mL): 99%

C=CCOc1cccc([C@@H](C)NCc2ccc3ccccc3c2)c1 [Compound 10Z]
% activity (33 ng/mL): 51% | % activity (330 ng/mL): 96%

CCOC(=O)COc1cccc([C@@H](C)NCc2ccc3ccccc3c2)c1 [Compound 11D]
% activity (33 ng/mL): 50% | % activity (330 ng/mL): 96%

COc1cccc([C@@H](C)NCc2cccc(OCc3ccccc3)c2)c1 [Compound 11W]
% activity (33 ng/mL): 44% | % activity (330 ng/mL): 81%

CC(C)c1ccc(CN[C@H](C)c2cccc3ccccc23)cc1.Cl [Compound 11X, N-(4-Isopropylbenzyl)-(R)-1-(1-naphthyl)ethylamine hydrochloride]
% activity (33 ng/mL): 76% | % activity (330 ng/mL): 100%

COc1cccc([C@@H](C)NCc2ccc(C(C)C)cc2)c1 [Compound 11Y]
% activity (33 ng/mL): 61% | % activity (330 ng/mL): 103%

COc1cccc([C@@H](C)NCC=Cc2ccc(C)cc2)c1 [Compound 12B, (R)-N-[3-(4-methylphenyl)prop-2-enyl]-1-(3-methoxyphenyl)ethylamine]
% activity (33 ng/mL): 56% | % activity (330 ng/mL): 110% | % activity (3300 ng/mL): 130%

COc1cccc([C@@H](C)NCC=Cc2ccccc2C)c1 [Compound 12C, (R)-N-[3-(2-methylphenyl)prop-2-enyl]-1-(3-methoxyphenyl)ethylamine]
% activity (33 ng/mL): 98% | % activity (330 ng/mL): 125% | % activity (3300 ng/mL): 134%

COc1cccc([C@@H](C)NCC=Cc2c(C)cc(C)cc2C)c1 [Compound 12D, (R)-N-[3-(2,4,6-trimethylphenyl)prop-2-enyl]-1-(3-methoxyphenyl)ethylamine]
% activity (33 ng/mL): 52% | % activity (330 ng/mL): 109% | % activity (3300 ng/mL): 128%

COc1cccc([C@@H](C)NCC=Cc2ccc(C(C)C)cc2)c1 [Compound 12E, (R)-N-[3-(4-isopropylphenyl)prop-2-enyl]-1-(3-methoxyphenyl)ethylamine]
% activity (33 ng/mL): 73% | % activity (330 ng/mL): 121% | % activity (3300 ng/mL): 117%

COc1cccc([C@@H](C)NCC=Cc2ccc(C)cc2C)c1 [Compound 12F, (R)-N-[3-(2,4-dimethylphenyl)prop-2-enyl]-1-(3-methoxyphenyl)ethylamine]
% activity (33 ng/mL): 101% | % activity (330 ng/mL): 110% | % activity (3300 ng/mL): 118%

COc1cccc([C@@H](C)NCC=Cc2cccc(C)c2)c1 [Compound 12G, (R)-N-[3-(3-methylphenyl)prop-2-enyl]-1-(3-methoxyphenyl)ethylamine]
% activity (33 ng/mL): 81% | % activity (330 ng/mL): 139% | % activity (3300 ng/mL): 139%

COc1cccc([C@@H](C)NCc2cccc(Oc3ccccc3)c2)c1 [Compound 12H]
% activity (33 ng/mL): 94% | % activity (330 ng/mL): 115% | % activity (3300 ng/mL): 114%

C[C@@H](NCc1ccc(OCc2ccccc2)cc1)c1cccc2ccccc12 [Compound 12I]
% activity (33 ng/mL): 93% | % activity (330 ng/mL): 111% | % activity (3300 ng/mL): 115%

CC(NCc1cccc(OCc2ccccc2)c1)c1cccc2ccccc12 (stereo not drawn) [Compound 12J]
% activity (33 ng/mL): 113% | % activity (330 ng/mL): 130% | % activity (3300 ng/mL): 131%

C[C@@H](NCc1ccccc1)c1cccc2ccccc12 [Compound 12L]
% activity: 45 | % activity (330 ng/mL): 88%

COc1cccc(C(C)NCc2ccc(C=Cc3ccccc3)cc2)c1 (stereo not drawn) [Compound 12M]
% activity (33 ng/mL): 56% | % activity (330 ng/mL): 86% | % activity (3300 ng/mL): 98%

C[C@@H](NCc1ccc(C(C)(C)c2ccccc2)cc1)c1cccc2ccccc12 [Compound 12N]
% activity (33 ng/mL): 102% | % activity (330 ng/mL): 106% | % activity (3300 ng/mL): 115%

COc1cccc([C@@H](C)NCc2ccc(C(C)(C)c3ccccc3)cc2)c1 [Compound 12O]
% activity (33 ng/mL): 94% | % activity (330 ng/mL): 117% | % activity (3300 ng/mL): 110%

COc1cccc([C@@H](C)NCCCc2ccc(C(C)C)cc2)c1 [Compound 12Y]
% activity (33 ng/mL): 46% | % activity (330 ng/mL): 80%

CC(NC(C)c1ccc(C(C)(C)C)cc1)c1ccccc1 (stereo not drawn) [Compound 13E]
% activity (33 ng/mL): 40% | % activity (330 ng/mL): 94% | % activity (3300 ng/mL): 123%

CC(N[C@H](C)c1ccc2ccccc2c1)c1ccc(C(C)(C)C)cc1 (stereo partly drawn) [Compound 13F]
% activity (33 ng/mL): 85% | % activity (330 ng/mL): 122% | % activity (3300 ng/mL): 125%

C[C@@H](NCc1cccc(Cl)c1)c1cccc2ccccc12 [Compound 13M]
% activity (33 ng/mL): 66% | % activity (330 ng/mL): 92%

CCc1ccc(CN[C@H](C)c2cccc3ccccc23)cc1 [Compound 13N]
% activity (33 ng/mL): 88% | % activity (330 ng/mL): 114%

C[C@@H](NCc1ccc(Cl)cc1)c1cccc2ccccc12 [Compound 13O]
% activity (33 ng/mL): 94% | % activity (330 ng/mL): 115%

Cc1ccc(CN[C@H](C)c2cccc3ccccc23)cc1 [Compound 13P]
% activity (33 ng/mL): 83% | % activity (330 ng/mL): 110%

C[C@@H](NCc1ccc(Cl)c(Cl)c1)c1cccc2ccccc12 [Compound 13R]
% activity (33 ng/mL): 98% | % activity (330 ng/mL): 132%

C[C@@H](NCc1ccc(F)cc1)c1cccc2ccccc12 [Compound 13T]
% activity (33 ng/mL): 53% | % activity (330 ng/mL): 90%

COc1ccc(CN[C@H](C)c2cccc3ccccc23)cc1 [Compound 13U]
% activity (33 ng/mL): 79% | % activity (330 ng/mL): 108%

C[C@@H](NCc1ccc(N(C)C)cc1)c1cccc2ccccc12 [Compound 13V]
% activity (33 ng/mL): 79% | % activity (330 ng/mL): 110%

C[C@@H](NCc1ccc([N+](=O)[O-])cc1)c1cccc2ccccc12 [Compound 13W]
% activity (33 ng/mL): 71% | % activity (330 ng/mL): 109%

COc1cccc([C@@H](C)NC[C@@H](C)c2ccc(CC(C)C)cc2)c1 [Compound 13Y]
% activity (33 ng/mL): 2% | % activity (330 ng/mL): 47% | % activity (3300 ng/mL): 106%

CC(C)Cc1ccc(C(C)CNC(C)c2cccc3ccccc23)cc1 (stereo not drawn) [Compound 13Z]
% activity (33 ng/mL): 22% | % activity (330 ng/mL): 54% | % activity (3300 ng/mL): 93%

Cc1ccc(CNC(C)c2ccc(C(C)(C)C)cc2)cc1 (stereo not drawn) [Compound 14B]
% activity (33 ng/mL): 11% | % activity (330 ng/mL): 55% | % activity (3300 ng/mL): 75%

CC(NCCc1ccccc1)c1ccc(C(C)(C)C)cc1 (stereo not drawn) [Compound 14H]
% activity (33 ng/mL): 5% | % activity (330 ng/mL): 49% | % activity (3300 ng/mL): 112%

CCN(CCCc1ccccc1)C(C)c1ccc(C(C)(C)C)cc1 (stereo not drawn) [Compound 14I]
% activity: 45 | % activity (33 ng/mL): 11% | % activity (3300 ng/mL): 80%

CC(c1ccc(C(C)(C)C)cc1)N(C)CCCc1ccccc1 (stereo not drawn) [Compound 14J]
% activity (33 ng/mL): 6% | % activity (330 ng/mL): 41% | % activity (3300 ng/mL): 55%

CC(C)c1ccc([C@@H](C)N[C@H](C)c2cccc3ccccc23)cc1 [Compound 14L]
activity at […] (33 ng/mL): 78% | activity at […] (330 ng/mL): 109%

C[C@@H](NCCc1ccccc1)c1cccc2ccccc12 [Compound 14N]
% activity (33 ng/mL): 55% | % activity (330 ng/mL): 89%
